pIC50: −log10 of the molar value. Like-named read-outs stand apart in the source and are kept apart here.

Holding throughout (type): biochemical
The target of assay [1] is Pim1 kinase (Homo sapiens, UniProt P11309). Nature of the assay: Pim1 ATP depletion assay.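 On all read-outs here: Luciferase-luciferin luminescence readout of residual ATP after PIM1 transfers phosphate to a peptide substrate, 40 µM ATP added, reaction run to roughly half ATP consumption.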 To be noted: for IC50: Pim1 ATP depletion assay, read-out: IC50 (μM) PIM1.
Assay [2] concerns the target Pim2 kinase (Homo sapiens, UniProt Q9P1W9). Nature of the assay: Pim2 ATP depletion assay.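 Further: Luciferase-based luminescent readout of ATP remaining after PIM2 phosphorylates a BAD peptide, final 5 nM enzyme, 4 µM ATP, 10 µM peptide, 2.5% DMSO, run to roughly half ATP consumption.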 The note with it: read-out: IC50 (μM) PIM2.
In assay [3] the target is Pim3 kinase (Homo sapiens, UniProt Q86V86). Nature of the assay: Pim3 ATP depletion assay. To be noted: read-out: IC50 (μM) PIM3.

Chain of Pim2 kinase (Q9P1W9 whole entry): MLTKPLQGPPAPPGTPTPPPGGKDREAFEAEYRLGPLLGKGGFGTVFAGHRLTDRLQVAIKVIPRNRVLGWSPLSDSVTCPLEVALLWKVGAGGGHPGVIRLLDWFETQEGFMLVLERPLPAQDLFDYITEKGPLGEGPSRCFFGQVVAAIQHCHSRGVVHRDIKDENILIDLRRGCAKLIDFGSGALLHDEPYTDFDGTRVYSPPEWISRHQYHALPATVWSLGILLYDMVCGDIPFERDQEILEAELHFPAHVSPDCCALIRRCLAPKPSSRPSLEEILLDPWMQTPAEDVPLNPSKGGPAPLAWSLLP
Chain of Pim1 kinase (P11309 whole entry): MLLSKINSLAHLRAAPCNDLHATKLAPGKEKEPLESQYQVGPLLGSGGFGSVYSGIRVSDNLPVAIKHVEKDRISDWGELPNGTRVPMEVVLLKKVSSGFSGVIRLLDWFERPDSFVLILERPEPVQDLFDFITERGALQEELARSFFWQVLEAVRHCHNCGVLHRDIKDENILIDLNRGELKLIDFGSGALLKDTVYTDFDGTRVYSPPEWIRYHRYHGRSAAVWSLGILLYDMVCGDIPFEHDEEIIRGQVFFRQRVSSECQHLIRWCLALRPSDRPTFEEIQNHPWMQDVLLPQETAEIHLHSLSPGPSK

For `CC1CC(N)CN(c2ccncc2NC(=O)c2nc(-c3c(F)cccc3F)ccc2N)C1` (stereo not drawn) [Example 288, 3-Amino-6-(2,6-difluoro-phenyl)-pyridine-2-carboxylic acid (3-amino-5-methyl-3,4,5,6-tetrahydro-2H-[1,4′]bipyridinyl-3′-yl)-amide], the IC50 in assay [1], in assay [2] and in assay [3] was less than 1 µM each time.
Consider `NC1CC(CO)CN(c2ccncc2NC(=O)c2ccc(F)c(-c3ccccc3F)n2)C1` (stereo not drawn) [Example 289, 5-Fluoro-6-(2-fluoro-phenyl)-pyridine-2-carboxylic acid (5-amino-3-hydroxymethyl-3,4,5,6-tetrahydro-2H-[1,4′]bipyridinyl-3′-yl)-amide], for which the 50% inhibitory concentration (IC50) in assay [1], in assay [2] and in assay [3] was less than 1 µM throughout.
With `CC(C)NC(=O)c1ccc(F)c(-c2ccc(N)c(C(=O)Nc3cnccc3N3CCCC4(CCNC4)C3)n2)c1` (stereo not drawn) [Example 291, 3-Amino-6-(2-fluoro-5-isopropylcarbamoyl-phenyl)-pyridine-2-carboxylic acid [4-(2,7-diaza-spiro[4.5]dec-7-yl)-pyridin-3-yl]-amide], the IC50 in assay [1], in assay [2] and in assay [3] was less than 1 µM each time.
As to `Nc1ccc(-c2c(F)cccc2F)nc1C(=O)Nc1cnccc1N1C[C@@H](N)C[C@@H](F)C1` [Example 293, 3-Amino-6-(2,6-difluoro-phenyl)-pyridine-2-carboxylic acid (3-amino-5-fluoro-3,4,5,6-tetrahydro-2H-[1,4′]bipyridinyl-3′-yl)-amide], the 50% inhibitory concentration (IC50) in assay [1], in assay [2] and in assay [3] was less than 1 µM in each case.
As for `Nc1ccc(-c2c(F)cccc2F)nc1C(=O)Nc1cnccc1N1C[C@@H](N)C[C@H](OC(=O)c2ccccc2)C1` [Example 295, Benzoic acid 5-amino-3′-{[3-amino-6-(2,6-difluoro-phenyl)-pyridine-2-carbonyl]-amino}-3,4,5,6-tetrahydro-2H-[1,4′]bi-pyridinyl-3-yl ester], the IC50 in assay [1] was less than 1 µM; in assay [2], 1 to 10 µM; in assay [3] it was less than 1 µM.
In the case of `CC(C)NC(=O)c1ccc(F)c(-c2ccc(N)c(C(=O)Nc3cnccc3N3C[C@@H](N)C[C@H](O)C3)n2)c1` [Example 296, 3-Amino-6-(2-fluoro-5-isopropylcarbamoyl-phenyl)-pyridine-2-carboxylic acid (3-amino-5-hydroxy-3,4,5,6-tetra-hydro-2H-[1,4′]bipyridinyl-3′-yl)-amide], the 50% inhibitory concentration (IC50) in assay [1], in assay [2] and in assay [3] was less than 1 µM in each case.
With `Nc1ccc(-c2c(F)cccc2F)nc1C(=O)Nc1cnccc1N1C[C@@H](N)C[C@H](O)C1` [Example 297, 3-Amino-6-(2,6-difluoro-phenyl)-pyridine-2-carboxylic acid (3-amino-5-hydroxy-3,4,5,6-tetrahydro-2H-[1,4′]bipyridinyl-3′-yl)-amide], the IC50 in assay [1], in assay [2] and in assay [3] was less than 1 µM throughout.
As for `COC1CCN(c2ccncc2NC(=O)c2nc(-c3cc(C(=O)NC(C)C)ccc3F)ccc2N)CC1N` (stereo not drawn) [Example 299, 3-Amino-6-(2-fluoro-5-isopropylcarbamoyl-phenyl)-pyridine-2-carboxylic acid (3-amino-4-methoxy-3,4,5,6-tetra-hydro-2H-[1,4′]bipyridinyl-3′-yl)-amide], the IC50 in assay [1], in assay [2] and in assay [3] was less than 1 µM in each case.
On to `COC1CCN(c2ccncc2NC(=O)c2nc(-c3c(F)cccc3F)ccc2N)CC1N` (stereo not drawn) [Example 301, 3-Amino-6-(2,6-difluoro-phenyl)-pyridine-2-carboxylic acid (3-amino-4-methoxy-3,4,5,6-tetrahydro-2H-[1,4′]bi-pyridinyl-3′-yl)-amide], for which the concentration for half-maximal inhibition (IC50) in assay [1], in assay [2] and in assay [3] was less than 1 µM throughout.
In the case of `Nc1ccc(-c2c(F)cccc2F)nc1C(=O)Nc1cnccc1N1CC[C@H]2OC(=O)N[C@H]2C1` [Example 302, 3-Amino-6-(2,6-difluoro-phenyl)-pyridine-2-carboxylic acid [4-(2-oxo-hexahydro-oxazolo[4,5-c]pyridin-5-yl)-pyridin-3-yl]-amide], the concentration for half-maximal inhibition (IC50) in assay [1], in assay [2] and in assay [3] was less than 1 µM throughout.
Take `Nc1ccc(-c2c(F)cccc2F)nc1C(=O)Nc1cnccc1N1CC[C@@H]2OC(=O)N[C@@H]2C1` [Example 303, 3-Amino-6-(2,6-difluoro-phenyl)-pyridine-2-carboxylic acid [4-(2-oxo-hexahydro-oxazolo[4,5-c]pyridin-5-yl)-pyridin-3-yl]-amide]: the 50% inhibitory concentration (IC50) in assay [1], in assay [2] and in assay [3] was less than 1 µM throughout.
For `Cc1ccc(S(=O)(=O)N2CCCCC2)cc1-c1ccc(N)c(C(=O)Nc2cnccc2N2CCC[C@H](N)C2)n1` [Example 318, 3-amino-6-[2-methyl-5-(piperidine-1-sulfonyl)-phenyl]-pyridine-2-carboxylic acid ((S)-3-amino-3,4,5,6-tetrahydro-2H-[1,4′]bi-pyridinyl-3′-yl)-amide], the IC50 in assay [1], in assay [2] and in assay [3] was less than 1 µM each time.
The compound `Nc1ccc(-c2ccccc2C(F)(F)F)nc1C(=O)Nc1cnccc1N1CCC[C@H](N)C1` [Example 336] had a pIC50 in assay [1] of more than 6.00. In addition, the 50% inhibitory concentration (IC50) in assay [2] and in assay [3] was less than 1 µM in each case.
`Cc1ccccc1-c1ccc(N)c(C(=O)Nc2cnccc2N2CCC[C@H](N)C2)n1` [Example 338, 3-amino-6-o-tolyl-pyridine-2-carboxylic acid ((S)-3-amino-3,4,5,6-tetrahydro-2H-[1,4′]bi-pyridinyl-3′-yl)-amide]: the IC50 in assay [1], in assay [2] and in assay [3] was less than 1 µM in each case.
On to `Nc1ncc(-c2cccc(C(=O)N3CCOCC3)c2)nc1C(=O)Nc1ccccc1N1CCNCC1` [Example 398, 3-amino-6-[3-(morpholine-4-carbonyl)-phenyl]-pyrazine-2-carboxylic acid (2-piperazin-1-yl-phenyl)-amide], for which the IC50 was 1 to 10 µM in assay [1], 10 to 25 µM in assay [2] and 1 to 10 µM in assay [3].
Turning to `Nc1ccc(-c2cncnc2)nc1C(=O)Nc1cnccc1N1CCC[C@H](N)C1` [Example 407, 3-amino-6-pyrimidin-5-yl-pyridine-2-carboxylic acid ((S)-3-amino-3,4,5,6-tetrahydro-2H-[1,4′]bipyridinyl-3′-yl)-amide], the IC50 in assay [1], in assay [2] and in assay [3] was less than 1 µM each time.
In the case of `Nc1ccc(-c2ccc(F)nc2N)nc1C(=O)Nc1cnccc1N1CCC[C@H](N)C1` [Example 408, 5,2′-diamino-6′-fluoro-[2,3′]bi-pyridinyl-6-carboxylic acid ((S)-3-amino-3,4,5,6-tetrahydro-2H-[1,4′]bipyridinyl-3′-yl)-amide], the concentration for half-maximal inhibition (IC50) in assay [1], in assay [2] and in assay [3] was less than 1 µM each time.
Consider `Cc1nc(N)ncc1-c1ccc(N)c(C(=O)Nc2cnccc2N2CCC[C@H](N)C2)n1` [Example 409, 3-amino-6-(2-amino-4-methyl-pyrimidin-5-yl)-pyridine-2-carboxylic acid ((S)-3-amino-3,4,5,6-tetrahydro-2H-[1,4′]bi-pyridinyl-3′-yl)-amide], for which the concentration for half-maximal inhibition (IC50) in assay [1], in assay [2] and in assay [3] was less than 1 µM in each case.
On to `COc1cc(-c2ccc(N)c(C(=O)Nc3cnccc3N3CCC[C@H](N)C3)n2)cnc1N` [Example 416, 5,6′-diamino-5′-methoxy-[2,3′]bi-pyridinyl-6-carboxylic acid ((S)-3-amino-3,4,5,6-tetrahydro-2H-[1,4′]bipyridinyl-3′-yl)-amide], for which the IC50 in assay [1], in assay [2] and in assay [3] was less than 1 µM each time.
Regarding `Nc1ncc(-c2ccc(N)c(C(=O)Nc3cnccc3N3CCC[C@H](N)C3)n2)c(N)n1` [Example 417, 3-amino-6-(2,4-diamino-pyrimidin-5-yl)-pyridine-2-carboxylic acid ((S)-3-amino-3,4,5,6-tetrahydro-2H-[1,4′]bi-pyridinyl-3′-yl)-amide], the IC50 in assay [1], in assay [2] and in assay [3] was less than 1 µM throughout.
For `Nc1ccc(-c2ccc(Cl)cc2F)nc1C(=O)Nc1cnccc1N1CCC[C@H](N)C1` [Example 420, 3-amino-6-(4-chloro-2-fluoro-phenyl)-pyridine-2-carboxylic acid ((S)-3-amino-3,4,5,6-tetra-hydro-2H-[1,4′]bipyridinyl-3′-yl)-amide], the IC50 in assay [1], in assay [2] and in assay [3] was less than 1 µM each time.
For `N[C@H]1CCCN(c2ccncc2NC(=O)c2ccc(F)c(-c3ccccc3F)n2)C1` [Example 444, 5-Fluoro-6-(2-fluoro-phenyl)-pyridine-2-carboxylic acid (3-amino-3,4,5,6-tetrahydro-2H-[1,4′]bipyridinyl-3′-yl)-amide], the IC50 in assay [1], in assay [2] and in assay [3] was less than 1 µM each time.
With `Nc1ccc(-c2ccc(-c3cccs3)s2)nc1C(=O)Nc1cnccc1N1CCC[C@H](N)C1` [Example 446, 3-Amino-6-[2,2′]bithiophenyl-5-yl-pyridine-2-carboxylic acid (3-amino-3,4,5,6-tetrahydro-2H-[1,4′]bipyridinyl-3′-yl)-amide], the half-maximal inhibitory concentration (IC50) in assay [1], in assay [2] and in assay [3] was less than 1 µM in each case.
On to `Cc1ccsc1-c1ccc(N)c(C(=O)Nc2cnccc2N2CCC[C@H](N)C2)n1` [Example 448, 3-Amino-6-(3-methyl-thiophen-2-yl)-pyridine-2-carboxylic acid (3-amino-3,4,5,6-tetrahydro-2H-[1,4′]bipyridinyl-3′-yl)-amide], for which the concentration for half-maximal inhibition (IC50) in assay [1], in assay [2] and in assay [3] was less than 1 µM in each case.

A word on the IC50: it is the point on the concentration scale where inhibition reaches its midpoint. One may read the pIC50 as the negative decadic logarithm of the IC50, by convention in mol/L. Read a high pIC50 as a low IC50.
